Molecular target: T1, transferrin iron complex (holo-Transferrin (hTf), human) (Homo sapiens, UniProt P02787)
T1 construct: purchased Sigma Corporation T0665-50MG
Assay: Evaluation D: capture of iron ions from transferrin iron complex
Assay type: binding
Experimental: Evaluation was carried out by the following evaluation method D with respect to properties whether iron ions were captured from the transferrin iron complex (transferrin iron complex in which transferrin is chelated to iron ions) by the iron chelating agent according to Examples 1 to 2.
The iron chelating agent according to Example 1 was dissolved in 1×D-PBS (pH 7.2) to prepare an iron chelating agent solution (“Fe-Ser•Na (5 mM)”) having an iron chelating agent concentration of 5 mM, in the same manner as the preparation method of the iron chelating agent in evaluation A of the iron chelating agent.
Further, as described above, the iron chelating agent according to Example 2 was dissolved in 1×D-PBS (pH 7.2) to prepare an iron chelating agent solution (“Fe-His•Na (5 mM)”) having an iron chelating agent concentration of 5 mM.
Further, 800 mM HEDTA solution as the iron chelating agent according to Comparative Example 3 was prepared as described above. 13.76 g of crystals were taken in a 50 mL conical tube, 25 mL of Milli-Q water was added and dissolution performed, and then adjustment to pH 7.0 was performed using concentrated hydrochloric acid (35 to 37%) and the total amount was adjusted to 50 mL using Milli-Q water (HEDTA solution (800 mM)). HEDTA solution (“HEDTA solution (5 mM)”) having a concentration of HEDTA of 5 mM was prepared using 1×D-PBS (pH 7.2).
Further, 800 mM solution (pH 7.0) was prepared by using NTA2Na and NTA3Na as iron chelating agents according to Comparative Example 1 as described above. 9.4 g of NTA2Na was dissolved in Milli-Q water and the total volume was made up to 50 mL (referred to as “NTA2Na solution (800 mM)” in some cases). Meanwhile, 11.0 g of NTA3Na was dissolved in Milli-Q water and the total volume was made up to 50 mL (“NTA3Na solution (800 mM)”). NTA2Na solution (800 mM) (pH 6.3) and NTA3Na solution (800 mM) (pH 11.3) were mixed to produce 800 mM of NTA solution with pH 7.0. NTA solution (“NTA solution (5 mM)”) having a concentration of NTA of 5 mM was prepared by using 1×D-PBS (pH 7.2).
A commercially available transferrin iron complex (holo-Transferrin (hTf), human, Code T0665-50MG, Lot 095K1633, manufactured by Sigma Corporation) was dissolved in 1×D-PBS (pH 7.2) to prepare a transferrin iron complex solution having a concentration of iron ions (iron ions which are transferrin-bound iron) of 50 μM.
50 μl of 50 μM transferrin iron complex solution was taken in a 1.5 mL sample tube, 50 μl of each of iron chelating agent solutions (Fe-Ser•Na (5 mM), Fe-His•Na (5 mM), NTA solution (5 mM), HEDTA solution (5 mM)) was added thereto and left at room temperature under light shielding for 24 hours. 50 μl of various reaction liquids was taken in a centrifugal ultrafiltration unit (trade name “Amicon Ultra-4 Ultracel-30k” UFC8030, manufactured by Millipore Corporation), and 450 μl of 1×D-PBS (pH 7.2) was added thereto, centrifugation was carried out at 3,500 rpm and 20° C. for 30 minutes, and transferrin and each low molecular chelating agents were separated (first time). After centrifugation, the filtrate was discarded. 450 μl of 1×D-PBS (pH 7.2) was added again to the solution (about 50 μl) containing transferrin concentrated in a unit and centrifugation was carried out with the same conditions (second time). A solution containing transferrin concentrated in a unit was recovered after the second time of centrifugation and the absorbance at the wavelength of 466 nm was measured using a spectrophotometer (trade name “Spectrophotometer DU 640”, manufactured by Beckman Coulter).

T1 sequence (P02787 20-698, one chain of several): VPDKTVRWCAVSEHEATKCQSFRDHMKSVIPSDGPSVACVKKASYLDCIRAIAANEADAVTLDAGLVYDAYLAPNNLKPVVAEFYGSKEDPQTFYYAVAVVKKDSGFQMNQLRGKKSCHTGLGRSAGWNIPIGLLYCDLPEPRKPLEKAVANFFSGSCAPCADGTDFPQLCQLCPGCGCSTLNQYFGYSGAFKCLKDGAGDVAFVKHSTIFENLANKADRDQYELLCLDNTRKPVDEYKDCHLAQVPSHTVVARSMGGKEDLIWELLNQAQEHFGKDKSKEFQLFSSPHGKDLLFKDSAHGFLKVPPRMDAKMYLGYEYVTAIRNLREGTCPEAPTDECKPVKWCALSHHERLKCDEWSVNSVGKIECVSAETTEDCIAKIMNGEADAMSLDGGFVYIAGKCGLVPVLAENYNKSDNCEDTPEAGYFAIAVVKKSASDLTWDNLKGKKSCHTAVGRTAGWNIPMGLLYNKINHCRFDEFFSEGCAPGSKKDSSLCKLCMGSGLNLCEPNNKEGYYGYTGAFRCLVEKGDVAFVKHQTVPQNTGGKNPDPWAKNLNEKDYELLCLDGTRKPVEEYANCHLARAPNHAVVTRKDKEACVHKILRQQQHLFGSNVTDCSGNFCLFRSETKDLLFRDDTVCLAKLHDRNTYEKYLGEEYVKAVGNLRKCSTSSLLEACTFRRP

change of absorbance (wavelength 466 nm) after addition to the transferrin iron complex solution (conclusion from Table 5): increased
hTf residual ratio (%) (relative to non-treated holo-Transferrin, 24 hours with 5 mM chelator solution): 104.32%
Absorbance (466 nm) (transferrin fraction after 24 hours at room temperature with 5 mM chelator solution and 50 μM transferrin iron complex solution, ultrafiltration): 0.0772
Compound: O=C(O)C(CO)NCc1ccccc1O (stereo not shown) [Example 1, o-[(1-carboxy-2-hydroxyethyl)-amino-methyl]-phenol]
capture of iron ions from the transferrin iron complex (conclusion from Table 5): does not remove iron ions of the transferrin iron complex
